Data set [1] concerns the target T1, SCD-1 (Homo sapiens, UniProt O00767).
T1 construct: addition of 125 μg of microsomal fraction of HepG2 cells; host or cells: HepG2 human hepatocarcinoma cells (microsomal fraction)
T1 sequence (O00767 1-359): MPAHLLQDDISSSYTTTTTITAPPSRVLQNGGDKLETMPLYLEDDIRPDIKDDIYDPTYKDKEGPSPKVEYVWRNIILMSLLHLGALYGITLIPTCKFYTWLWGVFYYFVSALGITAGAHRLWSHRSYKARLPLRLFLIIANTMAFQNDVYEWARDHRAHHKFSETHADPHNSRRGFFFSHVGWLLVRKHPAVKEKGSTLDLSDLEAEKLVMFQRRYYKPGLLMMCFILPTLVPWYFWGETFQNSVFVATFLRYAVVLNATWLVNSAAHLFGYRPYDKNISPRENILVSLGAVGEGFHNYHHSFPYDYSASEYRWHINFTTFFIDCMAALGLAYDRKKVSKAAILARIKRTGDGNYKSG
Kind of data set: Human enzymatic activity of SCD-1 from microsomes of HepG2 cells (conversion of [14C] stearic acid to oleic acid, HPLC). The settings on record: microsomal fraction of HepG2 cells, 62 μM stearic acid, 20 minutes at 37° C., vs vehicle 0.1% DMSO; read-out: HSCD-1 (HEPG2) IC50. Format: biochemical. The protocol: In vitro: Human enzymatic activity of SCD-1 from microsomes of HepG2 cells after treatment with the inhibitor compounds (% inhibition).
HepG2 cells of human hepatocarcinoma (ATCC, HB-8065) are cultured at confluence then trypsinated. The cell residue is solubilized in 10 mM Tris buffer (pH 7.4) sucrose (250 mM) DTT (1 mM) then the cells are lysed by sonication. The microsomes are obtained after centrifuging at 10,000 g for 20 minutes at 4° C. followed by centifrugation of the supernatant at 100,000 g for 60 minutes at 4° C. The residue is solubilized in 10 mM Tris buffer (pH 7.4) sucrose (250 mM) at 4° C. and the microsomal proteins are assayed and stored at −196° C. (liquid nitrogen).
The enzymatic reaction measures the conversion of stearic acid (C18:0 fatty acid) into oleic acid (C18:1 fatty acid) by SCD-1. The enzymatic reaction is initiated by the addition of 125 μg of microsomal fraction of HepG2 cells to tubes (total reaction volume of 500 μl) containing 62 μM stearic acid (45 μM stearic acid and 17 μM [^14C] stearic acid) in 100 mM phosphate buffer (pH 7.16) with 7.2 mM ATP, 0.54 mM CoA, 6 mM MgCl2, 0.8 mM NADH and the inhibitor compound or vehicle (0.1% DMSO). The tubes are incubated for 20 minutes at 37° C. then the enzymatic reaction is halted by the addition of KOH (12%) and saponification for 30 minutes at 80° C. After acidification (3N HCl), the fatty acids are extracted twice with ethyl ether, evaporated under nitrogen before being solubilized in methanol/dichloromethane (3:1). The reaction product (C18:1) is separated from the reaction substrate (C18:0) by HPLC (Perkin Elmer, C18 reverse phase column) coupled with an in-line radioactivity detector (FlowOne). Enzymatic activity is measured in picomoles of stearic acid converted to oleic acid per minute and per mg of protein. For each inhibitor compound, an IC50 value is determined, compared with the reference enzymatic activity (vehicle 0.1% DMSO). Sterculic acid is the reference inhibitor compound (Gomez F. E., Bauman D. E., Ntambi J. M., Fox B. G. Effects of sterculic acid on stearoyl-CoA desaturase in differentiating […] adipocytes. Biochem Biophys Res Commun. 300 316-326 (2003).

pIC50: −log10 of the molar value.

`Cn1nccc(NCC(=O)N2CCC(Oc3cc(F)ccc3F)CC2)c1=O` [Example 13, 4-{2-[4-(2,5-Difluoro-phenoxy)-piperidin-1-yl]-2-oxo-ethylamino}-2-methyl-2H-pyridazin-3-one] displayed a melting point of 160 °C.

In the case of `Cn1nccc(NCC(=O)N2CCC(Oc3ccccc3[N+](=O)[O-])CC2)c1=O` [Example 15, 2-Methyl-4-{2-[4-(2-nitro-phenoxy)-piperidin-1-yl]-2-oxo-ethylamino}-2H-pyridazin-3-one], the melting point amounted to 160 °C. With `CN(CC(=O)N1CCC(Oc2ccccc2Cl)CC1)c1ccnn(C)c1=O` [Example 18, 4-({2-[4-(2-Chloro-phenoxy)-piperidin-1-yl]-2-oxo-ethyl}-methyl-amino)-2-methyl-2H-pyridazin-3-one], the negative logarithm of the IC50 (pIC50) in data set [1] was 5.00 to 5.52. On to `Cn1ncc(NCC(=O)N2CCC(Oc3ccccc3C(F)(F)F)CC2)cc1=O` [Example 19, 2-Methyl-5-{2-oxo-2-[4-(2-trifluoromethyl-phenoxy)-piperidin-1-yl]-ethylamino}-2H-pyridazin-3-one], for which the melting point was 245 to 260 °C.

Take `Cn1ncc(NCC(=O)N2CCC(Oc3cc(F)ccc3Cl)CC2)cc1=O` [Example 20, 5-{2-[4-(2-Chloro-5-fluoro-phenoxy)-piperidin-1-yl]-2-oxo-ethylamino}-2-methyl-2H-pyridazin-3-one]: in data set [1], the pIC50 is approximately 5.00. The compound `Cn1nccc(OCC(=O)N2CCC(Oc3ccccc3OC(F)(F)F)CC2)c1=O` [Example 21, 2-Methyl-4-{2-oxo-2-[4-(2-trifluoromethoxy-phenoxy)-piperidin-1-yl]-ethoxy}-2H-pyridazin-3-one] displayed a melting point of 126 °C. Regarding `Cn1nccc(OCC(=O)N2CCC(Oc3ccc(F)cc3Cl)CC2)c1=O` [Example 22, 4-{2-[4-(2-Chloro-4-fluoro-phenoxy)-piperidin-1-yl]-2-oxo-ethoxy}-2-methyl-2H-pyridazin-3-one], the melting point stood at 135 °C.

For the compound `CC(=O)c1ccc(F)cc1OC1CCN(C(=O)COc2ccnn(C)c2=O)CC1` [Example 23, 4-{2-[4-(2-Acetyl-5-fluoro-phenoxy)-piperidin-1-yl]-2-oxo-ethoxy}-2-methyl-2H-pyridazin-3-one], the melting point was determined as 192 °C.

`Cn1ncc(OCC(=O)N2CCC(Oc3ccc(Cl)cc3Cl)CC2)cc1=O` [Example 26, 5-{2-[4-(2,4-Dichloro-phenoxy)-piperidin-1-yl]-2-oxo-ethoxy}-2-methyl-2H-pyridazin-3-one] came in with a melting point of 140 °C. Turning to `CN(Cc1ccc(Cl)c(Cl)c1)C1CCN(C(=O)CNc2ccnn(C)c2=O)CC1` [Example 28, 4-(2-{4-[(3,4-Dichloro-benzyl)-methyl-amino]-piperidin-1-yl}-2-oxo-ethylamino)-2-methyl-2H-pyridazin-3-one], the melting point amounted to 155 °C.

Regarding `Cn1nccc(NCC(=O)N2CCN(C(=O)c3cc(F)ccc3C(F)(F)F)CC2)c1=O` [Example 29, 4-{2-[4-(5-Fluoro-2-trifluoromethyl-benzoyl)-piperazin-1-yl]-2-oxo-ethylamino}-2-methyl-2H-pyridazin-3-one], the melting point is 210 °C. As for `Cn1nccc(NCC(=O)N2CCN(C(=O)c3ccccc3C(F)(F)F)CC2)c1=O` [Example 30, 2-Methyl-4-{2-oxo-2-[4-(2-trifluoromethyl-benzoyl)-piperazin-1-yl]-ethylamino}-2H-pyridazin-3-one], the melting point was determined as 170 °C. `Cn1nccc(NCC(=O)N2CC(COc3cc(C(F)(F)F)ccc3Cl)C2)c1=O` [Example 33, 4-{2-[3-(2-Chloro-5-trifluoromethyl-phenoxymethyl)-azetidin-1-yl]-2-oxo-ethylamino}-2-methyl-2H-pyridazin-3-one] gave a melting point of 174 °C.

For `Cn1nccc(CCC(=O)N2CCC(Oc3cc(C(F)(F)F)ccc3Cl)CC2)c1=O` [Example 37, 4-{3-[4-(2-Chloro-5-trifluoromethyl-phenoxy)-piperidin-1-yl]-3-oxo-propyl}-2-methyl-2H-pyridazin-3-one], the negative logarithm of the IC50 (pIC50) in data set [1] is 6.52. The compound `C[C@@H](Nc1ccnn(C)c1=O)C(=O)N1CCC(Oc2cc(C(F)(F)F)ccc2Cl)CC1` [Example 38, 4-{(R)-2-[4-(2-Chloro-5-trifluoromethyl-phenoxy)-piperidin-1-yl]-1-methyl-2-oxo-ethylamino}-2-methyl-2H-pyridazin-3-one] showed a melting point of 70 °C. `C[C@H](Nc1ccnn(C)c1=O)C(=O)N1CCC(Oc2cc(C(F)(F)F)ccc2Cl)CC1` [Example 39, 4-{(S)-2-[4-(2-Chloro-5-trifluoromethyl-phenoxy)-piperidin-1-yl]-1-methyl-2-oxo-ethylamino}-2-methyl-2H-pyridazin-3-one] returned a melting point of 70 °C. Turning to `O=C(CNc1ccn[nH]c1=O)N1CCC(Oc2cc(Cl)ccc2Cl)CC1` [Example 41, 4-{2-[4-(2,5-dichloro-phenoxy)-piperidin-1-yl]-2-oxo-ethylamino}-2H-pyridazin-3-one], the negative-log IC50 (pIC50) in data set [1] was 7.00 to 8.00. Take `O=C(CNc1ccn[nH]c1=O)N1CCC(Oc2cc(Br)ccc2Cl)CC1` [Example 42, 4-{2-[4-(5-Bromo-2-Chloro-phenoxy)-piperidin-1-yl]-2-oxo-ethylamino}-2H-pyridazin-3-one]: in data set [1], the negative logarithm of the IC50 (pIC50) was 7.00 to 8.00. `O=C(CNc1ccn[nH]c1=O)N1CCC(Oc2cc(F)c(F)cc2Br)CC1` [Example 43, 4-{2-[4-(2-Bromo-4,5-difluoro-phenoxy)-piperidin-1-yl]-2-oxo-ethylamino}-2H-pyridazin-3-one]: in data set [1], the pIC50 was 7.00 to 8.00. As to `O=C(CNc1ccn[nH]c1=O)N1CCC(Oc2cccc(C(F)(F)F)c2)CC1` [Example 44, 4-{2-[4-(3-trifluoromethyl-phenoxy)-piperidin-1-yl]-2-oxo-ethylamino}-2H-pyridazin-3-one], the pIC50 in data set [1] was 6.00 to 7.00. In the case of `O=C(CNc1ccnn(CCCC(F)(F)F)c1=O)N1CCC(Oc2cc(C(F)(F)F)ccc2Cl)CC1` [Example 45, 4-{2-[4-(2-Chloro-5-trifluoromethyl-phenoxy)-piperidin-1-yl]-2-oxo-ethylamino}-2-(4,4,4-trifluoro-butyl)-2H-pyridazin-3-one], the pIC50 in data set [1] was 6.00 to 7.00. For the compound `CC#CCn1nccc(NCC(=O)N2CCC(Oc3cc(C(F)(F)F)ccc3Cl)CC2)c1=O` [Example 46, 2-But-2-ynyl-4-{2-[4-(2-chloro-5-trifluoromethyl-phenoxy)-piperidin-1-yl]-2-oxo-ethylamino}-2H-pyridazin-3-one], the pIC50 in data set [1] is 6.00.

For `CC(C)CCCn1nccc(NCC(=O)N2CCC(Oc3cc(C(F)(F)F)ccc3Cl)CC2)c1=O` [Example 47, 4-{2-[4-(2-Chloro-5-trifluoromethyl-phenoxy)-piperidin-1-yl]-2-oxo-ethylamino}-2-(4-methyl-pentyl)-2H-pyridazin-3-one], in data set [1], the pIC50 was 6.00 to 6.52. The compound `CC(C)n1nccc(NCC(=O)N2CCC(Oc3ccccc3C(F)(F)F)CC2)c1=O` [Example 49, 2-Isopropyl-4-{2-oxo-2-[4-(2-trifluoromethyl-phenoxy)-piperidin-1-yl]-ethylamino}-2H-pyridazin-3-one] registered a melting point of 180 °C. Take `CCCCn1nccc(NCC(=O)N2CCC(Oc3ccccc3Cl)CC2)c1=O` [Example 50, 2-Butyl-4-{2-[4-(2-chloro-phenoxy)-piperidin-1-yl]-2-oxo-ethylamino}-2H-pyridazin-3-one]: the melting point was determined as 82 °C.
